Test results published in paper PMC7734798 (ACS Medicinal Chemistry Letters, 2020).

What was measured:
[1] = Brain stability / hydrolysis kinetics in rat brain homogenate (LC-DAD-MS/MS); type: in vitro ADME; details: 37 °C; for hydrolysis in rat brain homogenate in presence of FAAH inhibitor PF-3845: 5 μM PF-3845; for time to total disappearance of starting compound in rat brain homogenate / half-life at 1 µg/mL: absence of FAAH inhibitor; for half-life at 1 µg/mL: rat, brain homogenate
Experimental: We anticipated that, once they entered into the brain, conjugates would be hydrolyzed to the individual components by intracellular metabolic enzymes processing fatty acid derivatives (e.g., FAAH).[9],[17] Thus, the stability of 1 and 2 was evaluated by LC-DAD-MS/MS analysis of rat brain homogenate incubated with the conjugates, which was sampled at regular intervals over 1 h. To obtain initial clues on the implication of FAAH enzymes in hydrolysis, the assays were performed in the absence and presence of 5 μM FAAH inhibitor PF-3845.[9]
Velp (Usmate, Italy) RX3 vortex mixer and an Elma (Singen, Germany) Sonic T310 Trans ultrasonic […]
Chromatographic runs were obtained on an Agilent (Palo Alto, Ca, US) ZORBAX SB-C18 column (50 × 2.1 mm I.D., 3.5 µm particles), maintained at room temperature and equipped with a guard column. The mobile phase was a mixture of 0.1% aqueous formic acid (A) and acetonitrile (B), flowing at a constant rate of 0.3 mL/min. The mobile phase was set in isocratic mode with A:B ratio of (65:35, V:V); the two components of the mobile phase were filtered through Sartorius (Göttingen, Germany) membrane filters (47 mm diameter, polyamide, 0.2 µm pore size) and degassed by an ultrasonic bath. The injection volume was 10 μL. For compound purity, Total Ion Current (TIC) mode was used and DAD chromatograms were checked at 200 nm and 540 nm. For compound stability and hydrolysis studies, multiple reaction monitoring (MRM) acquisition mode was set up for both compounds 1 and 2, by flow-injection analysis directly in the MS source, in order to optimize ionization parameters and to select two exclusive MRM m/z transitions for each analyte, exploited for quantitative purposes and for qualitative confirmation, respectively.
Sample analysis and method validation […]
For compound stability and hydrolysis studies, after setting up MRM acquisition mode for both 1 and 2 as described previously, the LC-MS/MS method was coupled to an optimized sample preparation protocol to be applied to biological matrices, namely rat plasma and rat brain homogenate. Briefly, for both matrices, 1-mL sample was brought to 37±0.5°C by means of a thermostatted water bath.
Then, 50µL of analyte working solution was added to the matrix sample in order to obtain a final […]
concentration of 1 µg/mL. […]
plasma) and hydrolysis (in brain homogenate). Then, at regular intervals (5, 10, 15, 20, 25, 30, 45, 60 min) a 50-µL aliquot was sampled from the vial, added with 50 µL of ice-cold ACN and centrifuged for 5 min at 4500 rpm at 5°C. The resulting supernatant was subjected to an original miniaturized extraction procedure, based on microextraction by packed sorbent (MEPS), in order to purify the samples from potential interfering signals deriving from the matrices. The solution obtained after MEPS procedure was directly injected into the LC-MS/MS system under the optimized conditions previously described. Compound quantitation was obtained by integrating peak areas obtained from sample analysis and by interpolation on the linearity curve of each analyte. All analyses were carried out in triplicate and results were then expressed as % of remaining compound with respect to that assessed at t0 (100%), plotted against the defined time points.
In order to be applied for stability and hydrolysis studies, the MEPS-LC-MS/MS method was fully validated on both plasma and brain homogenate samples fortified with known amounts of compounds 1 and 2, pretreated and analyzed right after the addition of analyte working solutions. Method validation was performed according to the main international guidelines [ICH Harmonised Tripartite Guideline. Validation of Analytical Procedures: Text and Methodology Q2(R1); International Conference on Harmonisation of Technical] in terms of linearity (including limit of detection, LOD and limit of quantitation, LOQ), precision, accuracy, extraction yield and matrix effect.

Oli-Neu cells = experiment: Oli-Neu cell proliferation and differentiation assay: cell counting and measure of filaments; type: cell-based, mouse; details: 5 μM, 48 h
From the text: OPC proliferation and migration to the CNS injury site as well as their differentiation are critical steps toward remyelination in MS. HDAC activity plays a crucial role in OPC proliferation/differentiation; therefore, HDAC modulation is widely considered a promising therapeutic target for MS.[30] […] Therefore, we tested the effect of our compounds on OPC proliferation and differentiation, through cell counting, measure of filaments, and analysis of proliferation/differentiation markers (Figure 7).
Oli-Neu cells were grown in SATO medium (DMEM medium, 2 mM glutamine, 10 μg/ml insulin, 5.5 μg/ml transferrin, 38.72 nM sodium selenite, 100 µM putrescine, 520 nM L-thyroxine (T4), 500 nM triiodo-L-thyronine (T3), 200 nM progesterone, 25 μg/ml of gentamycin) supplemented with 1% heat-inactivated horse serum (HS) in a humidified, 5% CO2 incubator at 37°C. Cell culture medium and all chemicals were from Sigma-Aldrich, except for insulin-transferrin-sodium selenite 100X supplement (Life Technologies Corporation). Cells were plated on 96 well plates, previously coated with 10 μg/mL poly-L-lysine (Sigma-Aldrich; 10 μg/ml) at the density of 2.5 x 10 4/0.2 mL medium/well and treated with increasing concentrations of the compounds (0.5, 1, 5 and 10 μM). […]
Oli-Neu cells proliferation and differentiation assay
48 hours, for cell counting and measure of filaments, 5 random images for each condition were acquired with an Eclipse TS100 (Nikon) microscope using a 10X objective. Cells number and filament length were measured with Fiji ImageJ2 software. […]

Structure (SMILES) | hydrolysis in rat brain homogenate in presence of FAAH inhibitor PF-3845 [1] | time to total disappearance of starting compound in rat brain homogenate [1] [h] | half-life at 1 µg/mL [1] [min] | Oli-Neu cell number (Oli-Neu cells) | Oli-Neu filament length (Oli-Neu cells)
CC/C=C\C/C=C\C/C=C\CCCCCCCC(=O)NCCNC(=O)C(CCC)CCC [compound 1] | blocks the hydrolysis of both 1 and 2 to a large extent | ≤ 1 | ~23 | decrease cell number | parallel increase in filament length
CC/C=C\C/C=C\C/C=C\CCCCCCCC(=O)NCCOC(=O)C(CCC)CCC [compound 2] | blocks the hydrolysis of both 1 and 2 to a large extent | ≤ 1 | ~16 | decrease cell number | parallel increase in filament length
